Test results as given in patent US20240051954A1, “PYRROLO[3,2-B]PYRIDINE DERIVATIVES USEFUL IN TREATING CONDITIONS ASSOCIATED WITH CGAS” (NOVARTIS AG, priority 2020, published 2024).

Target: human truncated cGAS enzyme (147-522 human cGAS) (Homo sapiens (Human), UniProt Q8N884)
Experiment: Quantification of cGAS protein inhibition (cGAMP formation, LC-MS/MS)
Assay type: biochemical
Details: 30 nM enzyme, 45 bp dsDNA (ISD) 5 μM, GTP and ATP 0.5 mM each, 1 h at room temperature; potential mixture of co-existing tautomers and/or racemates
Description: Example 52: Quantification of cGAS Protein Inhibition
A reagent buffer was prepared in filtered and autoclaved water according to the following: • 50 mM Tris-buffer pH 7.5 (1 M Tris-buffer pH 7.5, Invitrogen, Cat. No. 15567-027); • 50 mM NaCl (5 M NaCl, Sodium Chloride Solution, Sigma, 59222C-); • 5 mM MgCl2 (1 M MgCl2, Sigma, M1028); • 0.1 mM ZnCl2 (Zinc Chloride [7646-85-7], powder, Cell Culture Tested, Sigma, Z-0152); and • 0.001% Tween 20 (TWEEN 20, Sigma Aldrich, P1379-).
A buffer for the cGAS enzyme was prepared in filtered and autoclaved water according to the following: • 50 mM Tris-buffer pH 7.5; • 5 mM MgCl2; and • 0.001% Tween 20.
Compounds were dispensed to a […]. The human truncated cGAS enzyme (4.2 mg/mL 147-522 human cGAS, MW 43,909 g/mol) was stored in 50 mM Tris, 500 mM NaCl, 5% (v/v) glycerol at pH 8 and diluted in the cGAS buffer enzyme shortly before use. The enzyme solution was transferred into the reagent buffer to give a final concentration of 30 nM. The reaction was started by mixing the enzyme with ISD (a 45 bp double stranded DNA, MW 27,670 g/mol, 5 mM), GTP and ATP to a final concentration of 5 μM, 0.5 mM and 0.5 mM respectively in a final volume of 10 μl. The reaction plates were then centrifuged at 1000 rpm for 1 minute and incubated at room temperature for 1 h. After 1 h of incubation, [^15N5]-2′3′-cGAMP to a final concentration of 200 nM and 30 μL of 100% acetonitrile/0.175% of TFA were added to the reaction mixture. The plates were centrifuged at 1000 rpm for 1 minute before being sealed for 3 seconds at 170° C. using a ThermoScientific sealer (ALPS™ 50V) and an aluminum sealing cover (Pierce Seal, 4titude, Product Code: 4TI-0531).
The concentration of cGAMP was measured on a LC-MS/MS system consisting of a THERMO Dionex Ultimate LC system with a high pressure pump, an autosampler, a column heating compartment (Reinach, Switzerland) and a SCIEX Triple Quad 5500 (Framingham, MA, USA) mass spectrometer for detection. The sample plates were centrifuged for 10 minutes at 2000 rpm. Up to three plates were placed in the autosampler for injection. An aliquot of 10 μL of each sample was injected on an XBridge BEH Amide 3.5 μm, 2.1×50 mm column (P/N 186004859) with an XBridge BEH Amide 5 μm 2.1×5 mm VanGuard Cartridge (P/N 186007760) pre-column (both WATERS, MA, USA) held at 40° C. An isocratic flow of 1.0 mL/min solvent (60% ACN, 8 mM ammonium acetate, 5 mM ammonium hydroxide, 0.04% acetic acid) was applied and sprayed into the ion source of the mass spectrometers. The MS parameters were optimized based on the properties of the compounds to be detected and run in positive multi-reaction mode (MRM) based on the mass transitions. LC and MS parameters were also optimized to allow for a sample-to-sample measuring time of approximately 75 sec and a run time of 8 hours per 384-well plate. All data were analyzed with Excel; and the dose response curves were generated using the auto fitting function of XLfit. The IC50 was determined by plotting the cGAMP concentration ratio (cGAMP divided by the internal standard [^15N5]-2′3′-cGAMP) versus the concentration of compound.

human truncated cGAS enzyme (147-522 human cGAS), sequence (Q8N884 147-522): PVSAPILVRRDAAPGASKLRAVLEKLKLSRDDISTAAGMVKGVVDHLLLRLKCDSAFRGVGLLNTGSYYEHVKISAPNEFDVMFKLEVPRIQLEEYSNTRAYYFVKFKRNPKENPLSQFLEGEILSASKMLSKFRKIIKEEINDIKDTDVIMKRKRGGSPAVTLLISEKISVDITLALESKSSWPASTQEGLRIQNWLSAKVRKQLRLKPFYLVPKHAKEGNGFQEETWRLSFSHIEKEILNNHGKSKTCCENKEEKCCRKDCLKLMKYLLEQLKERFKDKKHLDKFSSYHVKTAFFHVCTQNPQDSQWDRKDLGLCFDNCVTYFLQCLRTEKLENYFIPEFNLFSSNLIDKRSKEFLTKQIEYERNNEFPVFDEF

Row | IC50 [nM] | SMILES
1 | 76 | COc1nc2c(-c3cn[nH]c3)c(-c3nnc(C(F)(F)F)[nH]3)n(C)c2cc1Cl [Example 1, 6-chloro-5-methoxy-1-methyl-3-(1H-pyrazol-4-yl)-2-(5-(trifluoromethyl)-4H-1,2,4-triazol-3-yl)-1H-pyrrolo[3,2-b]pyridine]
2 | 32 | COc1nc2c(-c3cn[nH]c3)c(-c3nnc(C(C)(F)F)[nH]3)[nH]c2cc1Cl [Example 3, 6-chloro-2-(5-(1,1-difluoroethyl)-4H-1,2,4-triazol-3-yl)-5-methoxy-3-(1H-pyrazol-4-yl)-1H-pyrrolo[3,2-b]pyridine]
3 | 66 | COc1nc2c(-c3cn[nH]c3)c(-c3nnc(C(C)=O)[nH]3)[nH]c2cc1Cl [Example 6, 1-(5-(6-chloro-5-methoxy-3-(1H-pyrazol-4-yl)-1H-pyrrolo[3,2-b]pyridin-2-yl)-4H-1,2,4-triazol-3-yl)ethan-1-one]
4 | 267 | COc1nc2c(-c3cn[nH]c3)c(-c3nnc(F)[nH]3)n(C)c2cc1Cl [Example 9, 6-chloro-2-(5-fluoro-4H-1,2,4-triazol-3-yl)-5-methoxy-1-methyl-3-(1H-pyrazol-4-yl)-1H-pyrrolo[3,2-b]pyridine]
5 | 3520 | COc1nc2c(-c3cn[nH]c3)c(-c3nnc[nH]3)n(C)c2cc1Cl [Example 14, 6-chloro-5-methoxy-1-methyl-3-(1H-pyrazol-4-yl)-2-(4H-1,2,4-triazol-3-yl)-1H-pyrrolo[3,2-b]pyridine]
6 | 30 | COc1nc2c(-c3cn[nH]c3)c(-c3nnc(C(=O)N(C)C)[nH]3)[nH]c2cc1Cl [Example 16, 5-(6-chloro-5-methoxy-3-(1H-pyrazol-4-yl)-1H-pyrrolo[3,2-b]pyridin-2-yl)-N,N-dimethyl-4H-1,2,4-triazole-3-carboxamide]
7 | 116 | COc1nc2c(-n3ccnc3)c(-c3nnc(C(=O)N(C)C)[nH]3)n(C)c2cc1Cl [Example 17, 5-(6-chloro-3-(1H-imidazol-1-yl)-5-methoxy-1-methyl-1H-pyrrolo[3,2-b]pyridin-2-yl)-N,N-dimethyl-4H-1,2,4-triazole-3-carboxamide]
8 | 107 | COc1nc2c(-n3ccnc3)c(-c3nnc(C(OC)C(F)(F)F)[nH]3)n(C)c2cc1Cl (centres unmarked) [Example 26, 6-chloro-3-(1H-imidazol-1-yl)-5-methoxy-1-methyl-2-(5-(2,2,2-trifluoro-1-methoxyethyl)-4H-1,2,4-triazol-3-yl)-1H-pyrrolo[3,2-b]pyridine]
9 | 295 | COCC(O)c1nnc(-c2c(-n3ccnc3)c3nc(OC)c(Cl)cc3n2C)[nH]1 (centres unmarked) [Example 29, 1-(5-(6-chloro-3-(1H-imidazol-1-yl)-5-methoxy-1-methyl-1H-pyrrolo[3,2-b]pyridin-2-yl)-4H-1,2,4-triazol-3-yl)-2-methoxyethan-1-ol]
10 | 186 | COCC(F)(F)c1nnc(-c2c(-n3ccnc3)c3nc(OC)c(Cl)cc3n2C)[nH]1 [Example 30, 6-chloro-2-(5-(1,1-difluoro-2-methoxyethyl)-4H-1,2,4-triazol-3-yl)-3-(1H-imidazol-1-yl)-5-methoxy-1-methyl-1H-pyrrolo[3,2-b]pyridine]
11 | 332 | COc1nc2c(-n3ccnc3)c(-c3nnc(F)[nH]3)n(C)c2cc1Cl [Example 33, 6-chloro-2-(5-fluoro-4H-1,2,4-triazol-3-yl)-3-(1H-imidazol-1-yl)-5-methoxy-1-methyl-1H-pyrrolo[3,2-b]pyridine]
12 | 454 | COCC(c1nnc(-c2c(-n3ccnc3)c3nc(OC)c(Cl)cc3n2C)[nH]1)N(C)C (centres unmarked) [Example 36, 1-(5-(6-chloro-3-(1H-imidazol-1-yl)-5-methoxy-1-methyl-1H-pyrrolo[3,2-b]pyridin-2-yl)-4H-1,2,4-triazol-3-yl)-2-methoxy-N,N-dimethylethan-1-amine]
13 | 123 | COCC(c1nnc(-c2c(-c3cn[nH]c3)c3nc(OC)c(Cl)cc3n2C)[nH]1)N(C)C (centres unmarked) [Example 37, 1-(5-(6-chloro-5-methoxy-1-methyl-3-(1H-pyrazol-4-yl)-1H-pyrrolo[3,2-b]pyridin-2-yl)-4H-1,2,4-triazol-3-yl)-2-methoxy-N,N-dimethylethan-1-amine]
14 | 101 | COc1nc2c(-n3ccnc3)c(-c3nnc(/C(C)=N/OCCO)[nH]3)n(C)c2cc1Cl [Example 40, (E/Z)-1-(5-(6-chloro-3-(1H-imidazol-1-yl)-5-methoxy-1-methyl-1H-pyrrolo[3,2-b]pyridin-2-yl)-4H-1,2,4-triazol-3-yl)ethan-1-one O-(2-hydroxyethyl)oxime]
15 | 66 | COc1nc2c(-c3cn[nH]c3)c(-c3nnc(C(C)=O)[nH]3)n(C)c2cc1Cl [Example 42, 1-(5-(6-chloro-5-methoxy-1-methyl-3-(1H-pyrazol-4-yl)-1H-pyrrolo[3,2-b]pyridin-2-yl)-4H-1,2,4-triazol-3-yl)ethan-1-one]
16 | 98 | COc1nc2c(-c3cn[nH]c3)c(-c3nnc(C(=O)N(C)C)[nH]3)n(C)c2cc1Cl [Example 43, 5-(6-chloro-5-methoxy-1-methyl-3-(1H-pyrazol-4-yl)-1H-pyrrolo[3,2-b]pyridin-2-yl)-N,N-dimethyl-4H-1,2,4-triazole-3-carboxamide]
17 | 384 | COc1nc2c(-n3ccnc3)c(-c3nnc(C(F)(F)F)[nH]3)n(C)c2cc1Cl [Example 45]
18 | 80 | COc1nc2c(-n3ccnc3)c(-c3nnc(C(F)(F)F)[nH]3)[nH]c2cc1Cl [Example 46, 6-chloro-3-(1H-imidazol-1-yl)-5-methoxy-2-(5-(trifluoromethyl)-4H-1,2,4-triazol-3-yl)-1H-pyrrolo[3,2-b]pyridine]
19 | 741 | Cn1c(-c2nnc(C(F)(F)F)[nH]2)c(-c2cn[nH]c2)c2nc(O)c(Cl)cc21 [Example 50, 6-chloro-1-methyl-3-(1H-pyrazol-4-yl)-2-(5-(trifluoromethyl)-4H-1,2,4-triazol-3-yl)-1H-pyrrolo[3,2-b]pyridin-5-ol]
20 | 308 | COc1nc2c(-n3ccnc3)c(-c3nnc(CN(C)C)[nH]3)n(C)c2cc1Cl [Example 51, 1-(5-(6-chloro-3-(1H-imidazol-1-yl)-5-methoxy-1-methyl-1H-pyrrolo[3,2-b]pyridin-2-yl)-4H-1,2,4-triazol-3-yl)-N,N-dimethylmethanamine]
